Source: patent US10130670B2, “Composition for treating or preventing inflammatory skin disease, comprising, as active ingredient, immature citrus fruit extract, or synephrine or salt thereof” (BIO SPERCTRUM, INC., priority 2013, dated 2018)

Key:
eotaxin-1 [1] = assay: eotaxin-1 reporter gene (luciferase) promoter activity in IL-4 treated fibroblast; format: cell-based; conditions: 10, 100 and 200 μM synephrine; 50 ng/ml IL-4; 24 hours; NIH/3T3
Method: Human normal fibroblast (human normal fibroblast, NIH/3T3, department of dermatology in Aju University) was transformed by inserting Eotaxin-1 reporter gene into it with superfect (Quigen Co.), and then cultured in 5% concentration of CO2 cultivator under the condition of 37° C. for 24 hours. And then, the transformed fibroblast was inoculated into 24-well microplate with DMEM media so as to be about 2×10^5 cells per well, and treated with 1, 10, 100 ppm of unripe Citrus unshiu fruit extract, or 10, 100 and 200 μM of synephrine, respectively and then was treated simultaneously with 50 ng/ml of interleukin-4 (R&D, Minneapolis Minn., IL-4) known to induce eotaxin-1, cultivated for 24 hours to collect cells. Then, the collected cells were crushed and reacted with a substrate of luciferase to determine luminescence, and a promoter activity of eotaxin-1 was determined. The results are represented in FIG. 1.

eotaxin-1 [2] = assay: extracellular secretion of eotaxin-1 by ELISA in IL-4 treated fibroblast; format: cell-based, human; conditions: 10, 100 and 200 μM synephrine; 50 ng/ml IL-4; 24 hours; NIH/3T3
Method: Human normal fibroblast (human normal fibroblast, NIH/3T3, department of dermatology in Aju University) was inoculated into 24-well microplate with DMEM media so as to be about 2×10^5 cells per well, and cultured in 5% concentration of CO2 cultivator under the condition of 37° C. for 24 hours. And then, it was treated with 1, 10, 100 ppm of unripe Citrus unshiu fruit extract, or 10, 100 and 200 μM of synephrine, respectively and then was treated simultaneously with 50 ng/ml of interleukin-4 (R&D, Minneapolis Minn., IL-4), cultivated for 24 hours to collect cell culture media. And then, the degree of secretion of eotaxin-1 was determined by using ELISA kit. The results are represented in FIG. 2.

eotaxin-1 mRNA = eotaxin-1 mRNA expression by quantitative Real-time PCR in IL-4 treated fibroblast; format: cell-based, human; conditions: 10, 100 and 200 μM synephrine; 50 ng/ml IL-4; 24 hours; NIH/3T3
Method: Human normal fibroblast (human normal fibroblast, NIH/3T3, department of dermatology in Aju University) was inoculated into 24-well microplate with DMEM media to be about 2×10^5 cell per well, and cultured in 5% concentration of CO2 cultivator under 37° C. for 24 hours. And then, it was treated with 1, 10, 100 ppm of unripe Citrus unshiu fruit extract, or 10, 100 and 200 μM of synephrine, respectively and then was treated simultaneously with 50 ng/ml of interleukin-4 (R&D, Minneapolis Minn., IL-4), cultivated for 24 hours to collect cell culture media. After extracting tRNA from the collected cells, a complementary DNA (cDNA) was synthesized based on the extracted tRNA and then, a quantitative Real-time PCR was performed by using the synthesized complementary DNA as a template to determine the degree of expression for mRNA of eotaxin-1. The results are represented in FIG. 3.

STAT6 [3] = assay: STAT6 phosphorylation by Western blot in IL-4 treated fibroblast; format: cell-based, human; conditions: 10, 100, 200 ppm synephrine for 60 minutes, then 50 ng/ml IL-4 for 20 minutes; NIH/3T3
Method: Human normal fibroblast (human normal fibroblast, NIH/3T3, department of dermatology in Aju University) was inoculated into 24-well microplate with DMEM media so as to be about 2×10^5 cells per well, and cultured in 5% concentration of CO2 cultivator under the condition of 37° C. for 24 hours. And then, it was treated with 10, 100, 200 ppm of synephrine for 60 minutes, respectively and then 50 ng/ml of IL-4 was treated to cultivate for 20 minutes. Then, the cells were collected to dissolve and then determine the degree of phosphorylation inhibition of STAT6 through Western blot. The results are represented in FIG. 3.

STAT6 [4] = assay: translocation of STAT6 into the nucleus, confocal microscopy; format: cell-based; conditions: 200 μM synephrine for 60 minutes, then 50 ng/ml IL-4 for 24 hours; NIH/3T3
Method: Human normal fibroblast (human normal fibroblast, NIH/3T3, department of dermatology in Aju University) was inoculated into 24-well microplate with DMEM media so as to be about 2×10^5 cells per well, and cultured in 5% concentration of CO2 cultivator under the condition of 37° C. for 24 hours. And then, it was treated with 200 μM of synephrine for 60 minutes, respectively and then was treated with 50 ng/ml of IL-4 to cultivate for 24 hours. And then, the cells was immobilized with paraformaldehyde (PFA) and treated with the primary antibody specifically reacting with STAT6. […] The results are represented in FIG. 5.

eosinophil = eosinophil transmigration in co-cultivation with IL-4 treated fibroblast; format: cell-based; conditions: 10, 100 and 200 μM synephrine; 50 ng/ml IL-4; 24 hours
Method: Human normal fibroblast (human normal fibroblast, NIH/3T3, department of dermatology in Aju University) was inoculated into 24-well co-cultivation plate with DMEM media so as to be about 2×10^5 cells per well, and cultured in 5% concentration of CO2 cultivator under the condition of 37° C. for 24 hours. And then, it was treated with 10, 100 and 200 μM of synephrine for 60 minutes, respectively and then 50 ng/ml of IL-4 was treated to induce the expression of eotaxin-1. Simultaneously, eosinophil was inoculated and cultivated for 24 hours. After the cultivation, the transmigration degree of eosinophil moved through the membrane to bottom of the plate was determined. The determination was measured via a fluorescence staining by using CytoSelect™ 24-Well Cell Migration Assay kit (Cell biolabs, INC., USA). The results are represented in FIG. 6.

human skin = assay: accumulated patch test for safety to the human skin; format: in vivo; conditions: for Mean reaction degree: 30 adults, 9 patches, less than 3 = safe
Method: In order to identify as to whether the unripe Citrus unshiu fruit extract or synephrine isolated from the unripe Citrus unshiu fruit is safe or not, the skin external preparation based on squalene wherein 1, 10 and 100 ppm of the unripe Citrus unshiu fruit extract prepared in Example 1 were added, was prepared, and the skin external preparation wherein 10, 150 and 300 ppm of synephrine of Example 2 were added, were prepared, respectively.
Then, the skin external preparations were applied as a patch to areas of humerus of 30 adults for accumulated 24 hours on alternate day in total 9 times to test as to whether synephrine stimulates the skin. The control used the skin external preparation based on squalene wherein the unripe Citrus unshiu fruit extract or synephrine was not comprised.
The patch used Finn chamber (Epitest Ltd, Filand) and the patch was practiced after dropping with 15 μl of the skin external preparations prepared from the above, respectively. The degree of the reaction represented on the skin in every time was scored by using the below experimental formula 1. Mean reaction degree=[{(reaction index×reaction degree)/(total number of the subject×the highest score (four point))}×100]/times of the test [Experimental Formula 1]
At this time, in the reaction degree, ± represents 1 score (point), + represents 2 score and ++ represents 4 score,
When the mean reaction degree is less than 3, it is considered as being the safe composition.

[5] = test system: children of atopy patients; assay: effect for improving atopy of cream, EASI score; format: in vivo, human; conditions: for EASI score (5 = no improvement, 0 = many improvements): cream 0.03 or 0.01% by weight, twice per day, 30 children
Method: Creams comprising the unripe Citrus unshiu fruit extract or synephrine isolated from it, having the ingredients and contents shown in below Table 2 were prepared. Specifically, aqueous phase, the purified water, triethanolamine and propylene glycol were heated to 70° C. to dissolve them, and then to it added the liquid in which oil phase, fatty acid, oily component, emulsifier and preservative were heated to 70° C. to dissolve them and stirred with homomixer (Tokushu Kika Ltd., Japan) to emulsify them. After the emulsifying them was completed, the said solution was cooled to 45° C., 0.03% by weight or 0.01% by weight of the unripe Citrus unshiu fruit extract or synephrine based on the total weight of the composition was added, dispersed and then cooled to 30° C.
Cream comprising 0.03 or 0.01% by weight of the unripe Citrus unshiu fruit extract or synephrine isolated from it, prepared according to the method of 10-1 as above was used for 30 children of atopy patients twice per day for 4 weeks. The control used the cream comprising the purified water instead of the unripe Citrus unshiu fruit extract or synephrine.
The effect improving atopy was determined by using Eczema Area Severity Index (EASI) score, the determination criterion was set as 5 for the case that there is no improvement of atopy, and 0 for the case that there are many improvements of atopy and the relative values were compared.

With `CNCC(O)c1ccc(O)cc1` (stereo not drawn) [synephrine, 4-[1-hydroxy-2-(methylamino)ethyl]phenol] as the compound, how does the “promoter activity of eotaxin-1 derived by IL-4” value (eotaxin-1 [1]) read?
The value was “reduced”.

What about the “extracellular secretion of eotaxin-1 derived by IL-4” value (eotaxin-1 [2]) of the same compound?
The value was “reduced”.

And the “expression of mRNA of eotaxin-1 derived by IL-4” value (eotaxin-1 mRNA)?
Its value is “reduced”.

What about the “phosphorylation of STAT6 derived by IL-4” value (STAT6 [3]) of the same compound?
Its value is “effectively inhibits”.

And the “translocation of STAT6 derived by IL-4 into the nucleus” value (STAT6 [4])?
The value was “inhibits”.

What about the “movement of eosinophil derived by eotaxin-1 expressed from the treatment of IL-4” value (eosinophil) of the same compound?
The value was “inhibits”.

And the “skin reaction in the patch test” value (human skin; 10, 150 and 300 ppm, all test groups, all 9 patches)?
The value was “did not represent the skin reaction”.

And the Mean reaction degree (human skin; 10 ppm in squalene-based skin external preparation)?
Its Mean reaction degree is 0.00.

And the Mean reaction degree (human skin; 150 ppm in squalene-based skin external preparation)?
The Mean reaction degree was 0.00.

What about the Mean reaction degree (human skin; 300 ppm in squalene-based skin external preparation) of the same compound?
Its Mean reaction degree is 0.00.

And the “safety to the human skin, judged from mean reaction degree” value (human skin; all tested concentrations, mean reaction degree less than 3 = safe)?
The value was “safe material”.

What about the “EASI score (5 = no improvement, 0 = many improvements)” value ([5]; 1st week) of the same compound?
Its value is 2.82.

And the “EASI score (5 = no improvement, 0 = many improvements)” value ([5]; 2nd week)?
Its value is 1.51.

What about the “EASI score (5 = no improvement, 0 = many improvements)” value ([5]; 4th week) of the same compound?
The value was 0.63.

And the “EASI score compared to the control” value ([5]; cream used for 4 weeks)?
The value was “reduced compared to the control”.
